Results as given in PubChem BioAssay (NCI).
Where “and” joins values, the source holds several entries; their conditions need not be identical. Identical values can stand only once.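 Where inhibition never reached the appropriate level, the endpoint shown equals the highest concentration tested. Otherwise, values were interpolated linearly from a five-concentration, 48-hour dose response in 96-well plates. GI50 = concentration required for 50% inhibition of growth. TGI is the concentration that stops growth completely.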

Tests used:
Assay in all cases: growth of human tumour cells (NCI), 48 h
[1] = test system: TK-10 renal
[2] = test system: UO-31 renal
[3] = test system: SNB-19 CNS
[4] = test system: SK-MEL-5 melanoma
[5] = test system: CAKI-1 renal
[6] = test system: SF-295 CNS
[7] = test system: OVCAR-4 ovarian
[8] = test system: HCT-116 colon
[9] = test system: SNB-75 CNS
[10] = test system: 786-0 renal

Row | SMILES | GI50 [1] | TGI [1] | GI50 [2] | TGI [2] | GI50 [3] | TGI [3] | GI50 [4] | TGI [4] | GI50 [5] | TGI [5] | GI50 [6] | TGI [6] | GI50 [7] | TGI [7] | GI50 [8] | TGI [8] | GI50 [9] | TGI [9] | GI50 [10] | TGI [10]
1 | NNc1c2ccccc2nc2ccccc12 | 8.32 µM | 26.7 µM | 2.76 µM | 19.5 µM | 5.89 µM | > 100 µM | 2.14 µM | 13.3 µM | 3.29 µM | 19.4 µM | 1.88 µM | 14.9 µM | 2.62 µM | 19.4 µM | 3.99 µM | 17.6 µM | 2.67 µM | 17.8 µM | 6.2 µM | 29.4 µM
2 | C=C1C(=O)O[C@H]2[C@H]1CC/C(CNC(=O)/C=C/c1ccccc1)=C\CC[C@@]1(C)O[C@@H]21 | 1.42 µM | 3.03 µM | 1.21 µM | 2.56 µM | 2.39 µM | 10.9 µM | 1.68 µM | 3.06 µM | 1.17 µM | 2.49 µM | 5.25 µM | 18.7 µM | 1.51 µM | 4.14 µM | 0.465 µM | 1.75 µM | 1.67 µM | 4.74 µM | 1.48 µM | 3.69 µM
3 | O=NN(CCCl)C(=O)NC1CCC(=O)NC1=O (centres undefined) | – | 1050 µM | – | 1250 µM | – | 934 µM | – | 273 µM | – | 659 µM | – | 331 µM | – | > 993 µM | – | 605 µM | – | 396 µM | – | 377 µM
4 | Oc1c(Cl)cc(Cl)c2cccnc12 | 5.56 µM | 30.8 µM | 2.5 µM | 9.31 µM | 3.73 µM | 24.6 µM | 1.76 µM | 3.59 µM | 2.71 µM | 19 µM | 1.96 µM | > 100 µM | 2.32 µM | 7.85 µM | 2.97 µM | 10.1 µM | 6.27 µM | > 100 µM | 3.29 µM | 11.8 µM
5 | CN1CCc2c1nc(-c1cccnc1)c1c2N(C)CC1 | – | > 100 µM | – | > 100 µM | – | > 100 µM | – | > 100 µM | – | > 100 µM | – | > 100 µM | – | > 100 µM | – | > 100 µM | – | > 100 µM | – | > 100 µM
6 | CC(=O)Nc1ccc(C(=O)N2N=C(C)/C(=C/c3cccc([N+](=O)[O-])c3)C2=O)cc1 | – | > 100 µM | – | > 100 µM | – | > 100 µM | – | > 100 µM | – | > 100 µM | – | > 100 µM | – | > 100 µM | – | > 100 µM | – | > 100 µM | – | > 100 µM
7 | Cn1nnc2c(C(N)=O)ncn2c1=O | – | > 100 µM | – | > 100 µM | – | > 100 µM | – | > 100 µM | – | > 100 µM | – | > 100 µM | – | > 100 µM | – | > 100 µM | – | > 100 µM | – | > 100 µM
8 | COc1cccc(C2C(C#N)=C(N)Oc3c2ccc2ccccc32)c1 (centres undefined) | 5.71 µM | 27.3 µM | 0.054 µM | 14.3 µM | 0.0322 µM | 20.5 µM | < 0.0185 µM | 0.108 µM | < 0.01 µM | 14 µM | < 0.01 µM | 10.7 µM | – | 18.6 µM | < 0.0128 µM | 3.42 µM | < 0.0151 µM | 15.1 µM | 0.0364 µM | 12.3 µM
9 | O=C1CCC(N2C(=O)c3cccc(NCCCC4CCN(CCNC(=O)c5cc6c(o5)C(=O)c5ccccc5C6=O)CC4)c3C2=O)C(=O)N1 (centres undefined) | 2.25 µM | 4.4 µM | 1.37 µM | 2.91 µM | 0.673 µM | 1.97 µM | 0.163 µM | 0.303 µM | 2.17 µM | 9.13 µM | 0.252 µM | 0.711 µM | 0.747 µM | 2.08 µM | 0.465 µM | 2.38 µM | 1.53 µM | 2.88 µM | 1.44 µM | 3.17 µM
10 | CCN(CC)C(=S)SSC(=S)N(CC)CC | 21.9 µM and 34.2 µM | 43.4 µM and 99.7 µM | 15.6 µM and 19.7 µM | 31.9 µM and 49 µM | 37.4 µM and 76.4 µM | > 75.6 µM and 219 µM | 16.6 µM and 14.6 µM | 39.9 µM and 33.5 µM | 12.6 µM and 20.8 µM | 26.3 µM and 77.9 µM | 11.4 µM and 50.8 µM | > 50.2 µM and 278 µM | 13.5 µM and 13 µM | 28.9 µM and 26.4 µM | 11.4 µM | 24.9 µM | 20.7 µM and 18.2 µM | > 56.7 µM and 57.3 µM | 24.1 µM and 18.6 µM | > 56.2 µM and 39.7 µM
11 | COCCOCOC(C)(C)[C@H](CCOC(C)=O)O[Si](c1ccccc1)(c1ccccc1)C(C)(C)C | – | 87.1 µM | – | 36.9 µM | – | > 100 µM | – | 23.7 µM | – | > 100 µM | – | 55.5 µM | – | > 100 µM | – | > 100 µM | – | > 100 µM | – | 58.9 µM
12 | O=c1cccc(C#CC#CCCCO)o1 | 2.97 µM | 9.55 µM | 2.17 µM | > 100 µM | 9.13 µM | 39.1 µM | 12.3 µM | 27.3 µM | 2.9 µM | 8.17 µM | 13.5 µM | 28.9 µM | 8.59 µM | > 57.9 µM | 3.06 µM | 8.49 µM | 18.2 µM | 66.3 µM | 5.27 µM | 14 µM
13 | Cc1ccc(Sc2oc(-c3ccc(C)cc3)nc2[P+](c2ccccc2)(c2ccccc2)c2ccccc2)cc1 | 0.447 µM | 1.85 µM | 0.24 µM | 0.935 µM | 0.375 µM | 1.47 µM | 0.287 µM | 0.785 µM | 0.283 µM | 1.06 µM | 0.291 µM | 1.02 µM | 0.28 µM | 1.43 µM | 0.26 µM | 1.26 µM | 0.154 µM | 0.846 µM | 0.379 µM | 1.65 µM
14 | C=CCCCOC1[C@H](OCc2ccccc2)C(OCc2ccccc2)C(OC)O[C@@H]1CNC(=O)c1cccc(I)c1 (some centres undefined) | 5.3 µM | > 100 µM | 9.51 µM | > 100 µM | 6.35 µM | > 100 µM | 2.2 µM | 16.2 µM | 11.5 µM | > 100 µM | 4.14 µM | > 100 µM | 14.4 µM | > 100 µM | 4.3 µM | > 100 µM | 3.91 µM | 56.5 µM | 3.78 µM | > 100 µM
15 | C#CCSc1nc(N)c2ncn(C3OC(COP(=O)(O)O)C(O)C3O)c2n1 (centres undefined) | – | > 239 µM | – | > 239 µM | – | > 239 µM | – | > 239 µM | – | > 239 µM | – | > 239 µM | – | > 239 µM | – | > 239 µM | – | > 239 µM | – | > 239 µM
16 | O=[N+]([O-])c1ccc2c(Nc3ccccc3-c3ccccc3Nc3c4ccccc4nc4cc([N+](=O)[O-])ccc34)c3ccccc3nc2c1 | – | 36.9 µM | – | 28.8 µM | – | 43.8 µM | – | 8.09 µM | – | 50.6 µM | – | 60.5 µM | – | 57.2 µM | – | 6.38 µM | – | 34.5 µM | – | 13.4 µM
17 | O=C(NN1C(=O)CSC1c1ccc(F)cc1)C(O)c1ccccc1 (centres undefined) | > 100 µM | > 100 µM | > 100 µM | > 100 µM | > 100 µM | > 100 µM | > 100 µM | > 100 µM | > 100 µM | > 100 µM | > 100 µM | > 100 µM | > 100 µM | > 100 µM | > 100 µM | > 100 µM | 33.4 µM | > 100 µM | > 100 µM | > 100 µM
18 | O=C(O)COc1ccc(C(=O)/C(SS/C(C(=O)c2ccc(OCC(=O)O)c(Cl)c2Cl)=C2\C=C(c3ccc(Br)cc3)SS2)=C2/C=C(c3ccc(Br)cc3)SS2)c(Cl)c1Cl | – | > 100 µM | – | 20.2 µM | – | 33.1 µM | – | 43.1 µM | – | 99.4 µM | – | 43.3 µM | – | > 50.1 µM | – | 22.1 µM | – | 45.4 µM | – | > 45.3 µM
19 | COc1cccc(CC(C)=C(c2ccc(OCCCN(C)C)cc2)c2ccc(OCCCN(C)C)cc2)c1 | 1.35 µM | 3.01 µM | 0.424 µM | 0.795 µM | 0.905 µM | 3.34 µM | 0.57 µM | 1.31 µM | 0.683 µM | 1.95 µM | 0.658 µM | 1.87 µM | 0.575 µM | 1.41 µM | 0.447 µM | 0.839 µM | 0.619 µM | 1.77 µM | 0.416 µM | 0.771 µM
20 | C=C1CC[C@@H]2[C@](C)(COC(C)=O)[C@H](OC(C)=O)CC[C@@]2(C)[C@@H]1CC(Nc1ccc(S(=O)(=O)Nc2nccs2)cc1)C1=CCOC1=O (some centres undefined) | 9.45 µM | 21.2 µM | 4.07 µM | 16.1 µM | 4.36 µM | 16.1 µM | 4.79 µM | 17.1 µM | 3.8 µM | 14.2 µM | 13.8 µM | 27.2 µM | 4.53 µM | 17.7 µM | 1.75 µM | 3.75 µM | 2.83 µM | 15.6 µM | 2.55 µM | 6.74 µM
21 | COc1cc(/C=C/[N+](=O)[O-])cc(OC)c1OC | 2.49 µM | 6.07 µM | 2.05 µM | 3.91 µM | 5.64 µM | 18.4 µM | 1.55 µM | 3 µM | 1.49 µM | 7.39 µM | 8.52 µM | 23.8 µM | 3.22 µM | 11.5 µM | 1.89 µM | 3.56 µM | 2.4 µM | 6.11 µM | 1.9 µM | 3.53 µM
22 | O=C(CCc1nc(=S)[nH][nH]1)Nc1cccc(C(F)(F)F)c1 | – | > 100 µM | – | > 100 µM | – | > 100 µM | – | > 100 µM | – | > 100 µM | – | > 100 µM | – | > 100 µM | – | > 100 µM | – | > 100 µM | – | > 100 µM
